Measured values as given in the Biogen ADME set (Fang et al. 2023).
In brackets after ≈: the same amount, converted by molar mass.

Conditions: for aqueous solubility: pH 6.8

CCS(=O)(=O)N1CCC(C(=O)N(C)C2CCCCCCC2)CC1
MDR1-MDCK efflux ratio: 1.57 | intrinsic clearance, human liver microsomes: 133 mL/min/kg | intrinsic clearance, rat liver microsomes: 857 mL/min/kg | aqueous solubility: 51.4 µg/mL (≈ 149 µM)

N#CC1(NC(=O)C2CCCCCC2)CC1
intrinsic clearance, human liver microsomes: ≤ 4.74 mL/min/kg | intrinsic clearance, rat liver microsomes: ≤ 10.7 mL/min/kg | aqueous solubility: 33.4 µg/mL (≈ 162 µM)

CS(=O)(=O)N1CCc2c(cccc2NC(=O)c2ccc(F)cc2)C1
MDR1-MDCK efflux ratio: 6.4 | aqueous solubility: 0.37 µg/mL (≈ 1.06 µM)

Cc1nc(Cc2ccccc2)sc1C(=O)Nc1cccc(-c2ccn[nH]2)c1
MDR1-MDCK efflux ratio: 2.86 | intrinsic clearance, human liver microsomes: 30.4 mL/min/kg | intrinsic clearance, rat liver microsomes: 406 mL/min/kg

CCCc1cc(C)nc(O)c1CNC(=O)c1cc(-c2ccc(N3CCN(C(C)C)CC3)nc2)cc2c1cnn2C(C)C
MDR1-MDCK efflux ratio: 122 | intrinsic clearance, human liver microsomes: 120 mL/min/kg | intrinsic clearance, rat liver microsomes: 235 mL/min/kg

COCCNC(=O)c1nnc2n(c1=O)CCN2c1ccccc1
MDR1-MDCK efflux ratio: 9.52 | intrinsic clearance, human liver microsomes: ≤ 4.74 mL/min/kg | intrinsic clearance, rat liver microsomes: ≤ 10.7 mL/min/kg

Fc1cccc(OC2CCN(Cc3nc4ccccc4[nH]3)CC2)c1
MDR1-MDCK efflux ratio: 0.816 | intrinsic clearance, human liver microsomes: 93.3 mL/min/kg | intrinsic clearance, rat liver microsomes: 1960 mL/min/kg | aqueous solubility: 54.9 µg/mL (≈ 169 µM)

O=C(O)c1cnc(/C=C/c2csc(-c3ccsc3)n2)s1
MDR1-MDCK efflux ratio: 0.832 | intrinsic clearance, human liver microsomes: 7.87 mL/min/kg | intrinsic clearance, rat liver microsomes: 59.3 mL/min/kg | aqueous solubility: 77.5 µg/mL (≈ 242 µM)

Cc1cc(C)c(NC(=O)c2ccnc(OC3CCC3)c2)c(C)n1
MDR1-MDCK efflux ratio: 1.43 | intrinsic clearance, human liver microsomes: ≤ 4.74 mL/min/kg | intrinsic clearance, rat liver microsomes: 54.3 mL/min/kg | aqueous solubility: 36.1 µg/mL (≈ 116 µM)

COc1cc(C=C2C(=O)NN(c3ccccc3)C2=O)ccc1OCC(N)=O
intrinsic clearance, human liver microsomes: 158 mL/min/kg | intrinsic clearance, rat liver microsomes: 277 mL/min/kg | aqueous solubility: 29.7 µg/mL (≈ 80.7 µM)

Cc1nnc(N2CC[C@H](O)C2)c(C#N)c1C
MDR1-MDCK efflux ratio: 1.3 | intrinsic clearance, human liver microsomes: ≤ 4.74 mL/min/kg | intrinsic clearance, rat liver microsomes: ≤ 10.7 mL/min/kg | aqueous solubility: 31.2 µg/mL (≈ 143 µM)

CC(C)(C)c1cnc(CN2CCC(=O)Nc3cc(F)ccc32)o1
MDR1-MDCK efflux ratio: 1.92 | intrinsic clearance, human liver microsomes: 98.6 mL/min/kg | intrinsic clearance, rat liver microsomes: 950 mL/min/kg

CCc1cnc(C)nc1-c1ccc(-c2ccn[nH]2)cc1
MDR1-MDCK efflux ratio: 0.85 | intrinsic clearance, human liver microsomes: ≤ 4.74 mL/min/kg | intrinsic clearance, rat liver microsomes: 75 mL/min/kg | aqueous solubility: 20.7 µg/mL (≈ 78.5 µM)

Cn1cc(CCNC(=O)N2CCc3sccc3C2)cn1
MDR1-MDCK efflux ratio: 1.51 | intrinsic clearance, human liver microsomes: 15 mL/min/kg | intrinsic clearance, rat liver microsomes: 68.4 mL/min/kg | aqueous solubility: 40 µg/mL (≈ 138 µM)

O=C1NC(c2ccccc2)=N/C1=C/c1ccc2c(c1)OCO2
aqueous solubility: 0.31 µg/mL (≈ 1.06 µM)

COc1cc2nc(CN3CCC(CO)CC3)[nH]c(=O)c2cc1OC
MDR1-MDCK efflux ratio: 29 | intrinsic clearance, human liver microsomes: ≤ 4.74 mL/min/kg | intrinsic clearance, rat liver microsomes: ≤ 10.7 mL/min/kg

NCc1cccc(C(=O)N2CCCC2)c1
MDR1-MDCK efflux ratio: 3.58 | intrinsic clearance, human liver microsomes: ≤ 4.74 mL/min/kg | intrinsic clearance, rat liver microsomes: ≤ 10.7 mL/min/kg | aqueous solubility: 25.4 µg/mL (≈ 124 µM)

COC(=O)Nc1ccc(Oc2nc3ccccc3o2)cc1
MDR1-MDCK efflux ratio: 0.543 | intrinsic clearance, human liver microsomes: ≤ 4.74 mL/min/kg | intrinsic clearance, rat liver microsomes: 29.1 mL/min/kg | aqueous solubility: 22.2 µg/mL (≈ 78.1 µM)

COc1ccc(OC)c(S(=O)(=O)NCCC(=O)Nc2ccccc2C)c1
MDR1-MDCK efflux ratio: 19.9 | intrinsic clearance, human liver microsomes: 51.5 mL/min/kg | intrinsic clearance, rat liver microsomes: 616 mL/min/kg

O=c1oc2cccnc2n1Cc1ncc(-c2ccc(F)cc2)o1
MDR1-MDCK efflux ratio: 2.86 | intrinsic clearance, human liver microsomes: ≤ 4.74 mL/min/kg | intrinsic clearance, rat liver microsomes: ≤ 10.7 mL/min/kg

COc1ccc(C)cc1-c1cccnc1O
MDR1-MDCK efflux ratio: 1.08 | intrinsic clearance, human liver microsomes: 5.37 mL/min/kg | intrinsic clearance, rat liver microsomes: 26.5 mL/min/kg | aqueous solubility: 32.8 µg/mL (≈ 152 µM)

Cn1ccc(NC(=O)c2cc(-c3ccncc3)nc3ccccc23)n1
intrinsic clearance, human liver microsomes: 21.4 mL/min/kg | intrinsic clearance, rat liver microsomes: 65.7 mL/min/kg | aqueous solubility: 31.5 µg/mL (≈ 95.6 µM)

C=CCn1cnc2c(Cl)cc(-c3ccc(C(=O)NC4CC4)o3)cc21
MDR1-MDCK efflux ratio: 5.09 | intrinsic clearance, human liver microsomes: 27.5 mL/min/kg | intrinsic clearance, rat liver microsomes: 115 mL/min/kg | aqueous solubility: 33.2 µg/mL (≈ 97 µM)

Cc1ccc(CCNC(=O)N2CC(C)(C)OC(C)(C)C2)cn1
MDR1-MDCK efflux ratio: 22.9 | intrinsic clearance, human liver microsomes: 6.58 mL/min/kg | intrinsic clearance, rat liver microsomes: 76.4 mL/min/kg | aqueous solubility: 41.1 µg/mL (≈ 135 µM)

N#Cc1ccc(OC2CCNCC2)cc1
intrinsic clearance, human liver microsomes: ≤ 4.74 mL/min/kg | intrinsic clearance, rat liver microsomes: ≤ 10.7 mL/min/kg

CC(C)Cn1c(=O)[nH]c(=O)c2c1nc1n2CCCCC1
MDR1-MDCK efflux ratio: 3.54 | intrinsic clearance, human liver microsomes: 7.18 mL/min/kg | intrinsic clearance, rat liver microsomes: 28.2 mL/min/kg | aqueous solubility: 62.7 µg/mL (≈ 227 µM)

CC(C)c1cc(CN(C)Cc2c[nH]nc2-c2ccc(F)cc2)no1
MDR1-MDCK efflux ratio: 1.01 | intrinsic clearance, human liver microsomes: 325 mL/min/kg | intrinsic clearance, rat liver microsomes: 1780 mL/min/kg | aqueous solubility: 22.2 µg/mL (≈ 67.8 µM)

COc1ccc(F)cc1-c1ccc(-c2nnco2)cc1
intrinsic clearance, human liver microsomes: 23.8 mL/min/kg | intrinsic clearance, rat liver microsomes: 333 mL/min/kg

O=C(CC1c2ccccc2CCc2ccccc21)NCCN1CCOCC1
MDR1-MDCK efflux ratio: 10.6 | intrinsic clearance, human liver microsomes: 131 mL/min/kg | intrinsic clearance, rat liver microsomes: 2020 mL/min/kg

Cc1ncsc1CN1CCCN(c2nc3ccccc3[nH]2)CC1
MDR1-MDCK efflux ratio: 50.4 | intrinsic clearance, human liver microsomes: 36.5 mL/min/kg | intrinsic clearance, rat liver microsomes: 518 mL/min/kg | aqueous solubility: 51.9 µg/mL (≈ 158 µM)

Cn1cc(NC(=O)c2csc(Cc3ccccc3)n2)cn1
intrinsic clearance, human liver microsomes: 23.7 mL/min/kg | intrinsic clearance, rat liver microsomes: 64.8 mL/min/kg | aqueous solubility: 34.5 µg/mL (≈ 116 µM)

CN(C)C(=O)c1ccnc(NCc2cccc(C#N)c2)c1
MDR1-MDCK efflux ratio: 5.72 | intrinsic clearance, human liver microsomes: ≤ 4.74 mL/min/kg | intrinsic clearance, rat liver microsomes: 69 mL/min/kg

Cc1nc(CC(=O)NCc2ccccc2)cs1
MDR1-MDCK efflux ratio: 0.79 | intrinsic clearance, human liver microsomes: ≤ 4.74 mL/min/kg | intrinsic clearance, rat liver microsomes: 39 mL/min/kg | aqueous solubility: 26 µg/mL (≈ 106 µM)

O=C(Cc1ccc2c(c1)CCCC2)Nc1ccc(-n2cnnn2)cc1
aqueous solubility: 0.95 µg/mL (≈ 2.85 µM)

O=C(NC1CC1)c1cccc2cccnc12
MDR1-MDCK efflux ratio: 0.708 | intrinsic clearance, human liver microsomes: 5.23 mL/min/kg | intrinsic clearance, rat liver microsomes: 31.3 mL/min/kg | aqueous solubility: 33.8 µg/mL (≈ 159 µM)

Cc1ccc(CN)c(-n2cc(Cl)cn2)n1
MDR1-MDCK efflux ratio: 0.396 | intrinsic clearance, human liver microsomes: ≤ 4.74 mL/min/kg | intrinsic clearance, rat liver microsomes: 27.4 mL/min/kg

COc1ccccc1CNc1cn[nH]c(=O)c1Cl
MDR1-MDCK efflux ratio: 1.3 | intrinsic clearance, human liver microsomes: ≤ 4.74 mL/min/kg | intrinsic clearance, rat liver microsomes: 104 mL/min/kg

CC(C)(C)NC(=O)c1cncn1C1CCN(c2ccc(-c3nnc(C(F)(F)F)o3)cn2)CC1
MDR1-MDCK efflux ratio: 8.45 | intrinsic clearance, human liver microsomes: ≤ 4.74 mL/min/kg | intrinsic clearance, rat liver microsomes: 25.3 mL/min/kg | aqueous solubility: 61.1 µg/mL (≈ 132 µM)

Cc1cc(C)nc(NCc2cnc(C)c(C)c2)n1
MDR1-MDCK efflux ratio: 0.622 | intrinsic clearance, human liver microsomes: 12.5 mL/min/kg | intrinsic clearance, rat liver microsomes: 162 mL/min/kg | aqueous solubility: 13.3 µg/mL (≈ 54.9 µM)

Cn1nc(C2CCNCC2)c2cccnc21
MDR1-MDCK efflux ratio: 6.86 | intrinsic clearance, human liver microsomes: ≤ 4.74 mL/min/kg | intrinsic clearance, rat liver microsomes: 36.3 mL/min/kg | aqueous solubility: 53.4 µg/mL (≈ 247 µM)

CCOC(=O)C1CCN(C(=O)c2cc3occc3c(Nc3ccc(F)cc3)n2)CC1
MDR1-MDCK efflux ratio: 1.32 | aqueous solubility: 0.88 µg/mL (≈ 2.14 µM)

Cc1nn(C)c(C)c1CCC(=O)N1CCN(C)Cc2ccccc21
MDR1-MDCK efflux ratio: 45.8 | intrinsic clearance, human liver microsomes: 74.2 mL/min/kg | intrinsic clearance, rat liver microsomes: 279 mL/min/kg | aqueous solubility: 53 µg/mL (≈ 162 µM)

COC(=O)[C@@H]1C[C@H](O)CN1CCc1ccccc1F
MDR1-MDCK efflux ratio: 0.726 | intrinsic clearance, rat liver microsomes: 3370 mL/min/kg | aqueous solubility: 56.8 µg/mL (≈ 212 µM)

Cc1ccc(C(=O)N(C)Cc2c(C)noc2C)cn1
MDR1-MDCK efflux ratio: 1.35 | intrinsic clearance, human liver microsomes: ≤ 4.74 mL/min/kg | intrinsic clearance, rat liver microsomes: ≤ 10.7 mL/min/kg | aqueous solubility: 40.8 µg/mL (≈ 157 µM)

CN1CCc2nc(NC(=O)c3ccc(Cl)s3)sc2C1
MDR1-MDCK efflux ratio: 0.586 | intrinsic clearance, human liver microsomes: 20 mL/min/kg | intrinsic clearance, rat liver microsomes: 477 mL/min/kg | aqueous solubility: 48.8 µg/mL (≈ 155 µM)

N#Cc1cccnc1Nc1cnn(Cc2ccccc2)c1
intrinsic clearance, human liver microsomes: 24.4 mL/min/kg | intrinsic clearance, rat liver microsomes: 850 mL/min/kg | aqueous solubility: 3.72 µg/mL (≈ 13.5 µM)

Cc1nc2cc(NC(=O)CCc3c(C)noc3C)ccc2o1
MDR1-MDCK efflux ratio: 4.62 | intrinsic clearance, human liver microsomes: ≤ 4.74 mL/min/kg | intrinsic clearance, rat liver microsomes: 78.5 mL/min/kg | aqueous solubility: 39.1 µg/mL (≈ 131 µM)

Cc1nc2ccccc2c(N)c1C(=O)/C=C/c1ccccc1
MDR1-MDCK efflux ratio: 0.244 | intrinsic clearance, human liver microsomes: 50 mL/min/kg | intrinsic clearance, rat liver microsomes: 922 mL/min/kg | aqueous solubility: 41.4 µg/mL (≈ 144 µM)

O=C(c1ccccc1N1CCOCC1)N(Cc1ccccn1)C1CCCCC1
MDR1-MDCK efflux ratio: 3.17 | intrinsic clearance, human liver microsomes: 990 mL/min/kg | intrinsic clearance, rat liver microsomes: 3840 mL/min/kg

N#Cc1ccc2[nH]c(O)c(-c3ccc(CN4CCOCC4)cn3)c2c1
MDR1-MDCK efflux ratio: 26 | fraction unbound, rat plasma: 0.118 | intrinsic clearance, human liver microsomes: 11.2 mL/min/kg | intrinsic clearance, rat liver microsomes: 70.8 mL/min/kg | aqueous solubility: 25.9 µg/mL (≈ 77.6 µM)

NC(=O)c1ccc(Oc2ccc(C(=O)N3CCCCCC3)cc2)cc1
MDR1-MDCK efflux ratio: 4.9 | intrinsic clearance, human liver microsomes: 11.4 mL/min/kg | intrinsic clearance, rat liver microsomes: 82.3 mL/min/kg | aqueous solubility: 59.8 µg/mL (≈ 177 µM)

COc1cc(Nc2ncc(F)c(Nc3ccc4c(n3)NC(=O)C(C)(C)O4)n2)cc(OC)c1OC
intrinsic clearance, human liver microsomes: 133 mL/min/kg | intrinsic clearance, rat liver microsomes: 122 mL/min/kg

O=c1[nH]c2cc3ccccc3c(=O)n2c2sc3c(c12)CCCC3
aqueous solubility: 15.2 µg/mL (≈ 47 µM)

Cc1nnc2ccc(N3CCC4(CCCCC4)C3)nn12
MDR1-MDCK efflux ratio: 0.709 | intrinsic clearance, human liver microsomes: 33.2 mL/min/kg | intrinsic clearance, rat liver microsomes: 600 mL/min/kg

Cc1ccc(C)c(S(=O)(=O)N2CCCN(CCn3cccn3)CC2)c1
MDR1-MDCK efflux ratio: 1.14 | intrinsic clearance, human liver microsomes: 207 mL/min/kg | intrinsic clearance, rat liver microsomes: 2010 mL/min/kg | aqueous solubility: 30.5 µg/mL (≈ 84.1 µM)

Cn1cc(-c2ccnc(/C=C/c3ccc(F)cc3Br)n2)cn1
MDR1-MDCK efflux ratio: 0.658 | aqueous solubility: 0.68 µg/mL (≈ 1.89 µM)

CN(CC(=O)NC1CC1)C(=O)C1C2CC3CC(C2)CC1C3 (stereo not drawn)
MDR1-MDCK efflux ratio: 1.58 | intrinsic clearance, human liver microsomes: 21.7 mL/min/kg | intrinsic clearance, rat liver microsomes: 463 mL/min/kg | aqueous solubility: 50.8 µg/mL (≈ 175 µM)

Cc1ccc(NC(=O)CN(C)C(=O)c2ccccc2F)nc1
MDR1-MDCK efflux ratio: 1.43 | intrinsic clearance, human liver microsomes: ≤ 4.74 mL/min/kg | intrinsic clearance, rat liver microsomes: 103 mL/min/kg | aqueous solubility: 54 µg/mL (≈ 179 µM)
